According to patent US4888345A, “4,8-disubstituted-1,2-dihydro and 1,2,3,4-tetrahydroimidazo-[1,5-a] pyrimidines” (American Cyanamid Company, priority 1988, dated 1989):

What follows are compounds tested on Brain-Specific Receptors of Rats (3H-benzodiazepine binding) (assay: Inhibition of the binding of 3H-benzodiazepine to brain-specific receptors of rats (antianxiety)). Details: rat cortex P2-synaptosomal fraction; 3H-diazepam (1.5 nM) or 3H-flunitrazepam (1.0 nM); 30 minutes in ice, pH 7.4; test concentration not given.
Set-up: species or system rat (Wistar strain)
Source text: The antianxiety properties of certain of the novel compounds of the present invention have been establish in a test which measures the ability of a test compound to inhibit the binding of tritiated benzodiazepines to brain-specific receptors of mammals. A modification of the method described by R. F. Squires, et al., Nature, 266, No. 21, pg 732 (April 1977) and H. Mohler, et al., Science, 198:849 (1977) was employed.
Male albino rats (Wistar strain, weighing 150 g 200 g each) were used. The test compounds were solubilized in dimethylformamide, acetic acid, ethanol or hydrochloric acid.
Whole cortex of rats was homogenized gently in 20 volumes of ice-cold 0.32 M sucrose, centrifuged twice at 1000 g for 10 minutes and then recentrifuged at 30,000 g for 20 minutes to produce a crude P2 -synaptosomal fraction. […]
The binding assay consisted of 300 μl of the P2 -fraction suspension (0.2-0.4 mg protein), 100 μl of test drug and 100 μl of ^3 H-diazepam (1.5 nM, final concentration) or ^3 H-flunitrazepam (1.0 nM, final concentration) which was added to 1.5 ml of 50 mM Tris.HCl (pH 7.4). […] After drying at 50°-60° C. for 30 minutes, 10 ml of diluent was added and the radioactivity determined in a scintillation counter.
Inhibition of binding was calculated by the difference between total binding and binding in the presence of test compound, divided by the total binding, ×100. […]

% Inhibition of 3H-benzodiazepine binding [%]	SMILES
29	NC(=O)c1ncn2c1NCC=C2c1ccc(N2CCOCC2)cc1 [Example 38, 1,2-Dihydro-4-[4-(4-morpholinyl)-phenyl]imidazo[1,5-a]pyrimidine-8-carboxamide]
27	COc1cccc(C2=CCNc3c(C(N)=O)ncn32)c1 [Example 30, 1,2-Dihydro-4-(3-methoxyphenyl)-imidazo[1,5-a]pyrimidine-8-carboxamide]

What follows are compounds tested on Spontaneously Hypertensive Rats (assay: Hypotensive activity: reduction of mean arterial blood pressure in spontaneously hypertensive rats (method of Chan and Poorvin)). Details: gavage, two doses of 100 mg/kg or less 24 hours apart; measured 28 hours after initial dose; average MABP of the rats used 160±1.5 mm Hg.
Format: in vivo
Experimental: Certain of the novel compounds of the present invention are active hypotensive agents at nontoxic doses when administered to mammals. These compounds were tested for hypotensive activity by the method of P. S. Chan and D. Poorvin, Clinical and Experimental Hypertension, 1(6), 817-830 (1979). Male, 16 week old, spontaneously hypertensive rats of the Okamoto strain having an average mean arterial blood pressure of 160±1.5 mm of mercury are used in the test. One to 3 rats are used per test compound. A rat is dosed by gavage with a test compound, suspended in 2% pre-boiled starch at a concentration of 50 mg/ml, at a dose of 100 mg/kg of body weight or less, with 0.9% sodium chloride loading at a dose of 25 ml/kg of body weight. A second identical dose of the test compound, without sodium chloride loading is given 24 hours later. At 28 hours after the initial dose the mean arterial blood pressure is measured by the method of Chan and Poorvin vide supra. The procedure is repeated in a second and third rat when necessary.

SMILES	MABP/mm Hg (mean arterial blood pressure after dosing) [mm Hg]
NC(=O)c1ncn2c1NCC=C2c1cccc(C(F)(F)F)c1 [Example 26, 1,2-Dihydro-4-[3-(trifluoromethyl)phenyl]imidazo-[1,5-a]pyrimidine-8-carboxamide]	111
NC(=O)c1ncn2c1NCC=C2c1cc(Cl)ccc1Cl [Example 28, 4-(2,5-Dichlorophenyl)-1,2-dihydroimidazo[1,5-a]-pyrimidine-8-carboxamide]	106
NC(=O)c1ncn2c1NCC=C2c1ccccc1 [Example 29, 1,2-Dihydro-4-phenylimidazo[1,5-a]-pyrimidine-8-carboxamide]	121
NC(=O)c1ncn2c1NCC=C2c1cccc(Cl)c1 [Example 27, 4-(3-Chlorophenyl)-1,2-dihydroimidazo[1,5-a]-pyrimidine-8-carboxamide]	132
NC(=O)c1ncn2c1NCC=C2c1cccc([N+](=O)[O-])c1 [Example 35, 1,2-Dihydro-4-(3-nitrophenyl)imidazo-[1,5-a]pyrimidine-8-carboxamide]	139
NC(=O)c1ncn2c1NCC=C2c1cccnc1 [Example 37, 1,2-Dihydro-4-(3-pyridinyl)imidazo-[1,5-a]pyrimidine-8-carboxamide]	138
